By IC50 is commonly meant the concentration that inhibits the measured activity by half.

We go through 34 molecules from US9303016B2, “Derivatives of aza adamantane and uses thereof” (CONNEXIOS LIFE SCIENCES PVT. LTD., priority 2011, dated 2016).

Bounds are passed on as bounds.

T1 sequence (P28845 whole entry): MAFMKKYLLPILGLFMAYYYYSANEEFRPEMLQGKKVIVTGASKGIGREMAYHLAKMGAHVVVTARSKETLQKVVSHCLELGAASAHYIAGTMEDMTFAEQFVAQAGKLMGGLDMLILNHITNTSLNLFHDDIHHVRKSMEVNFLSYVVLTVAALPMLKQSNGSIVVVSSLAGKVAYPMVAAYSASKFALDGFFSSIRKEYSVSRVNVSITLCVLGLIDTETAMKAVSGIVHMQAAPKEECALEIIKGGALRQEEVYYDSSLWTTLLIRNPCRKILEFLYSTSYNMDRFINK

The assay concerns the target T1, human full length HSD11β1 (Homo sapiens, UniProt P28845).
T1 construct: transient expression of human full length HSD11β1 expression vector; host or cells: CHO cells, transient transfection
Kind of assay: In Vitro HSD11β1 Inhibition Assay. Type of assay: cell-based. The following applies: CHO cells transiently expressing human HSD11β1; 200 nM cortisone+500 uM NADPH overnight; cortisone to cortisol by LC/MS-MS; read-out: 11βHSD1 (IC50). The method, boiled down: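 Whole-cell assay in CHO cells transiently transfected with full-length human HSD11β1, re-seeded 24 h after transfection. Cells incubated overnight with 200 nM cortisone plus 500 uM NADPH, with or without inhibitor. Cortisone-to-cortisol conversion measured by LC/MS-MS; IC50 (nM) from an 8-point log concentration-inhibition curve.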
Regarding `CC(CC(=O)N1C2CC3CC1CC(C(=O)O)(C3)C2)c1c[nH]c2cccc(C3CC3)c12` (single isomer, unassigned) [Example 53, 2-[3-(4-cyclopropyl-1H-indol-3-yl)butanoyl]-2-azatricyclo[3.3.1.1^3,7]decane-5-carboxylic acid], the IC50 is above 250 nM.
For `CC(CC(=O)N1C2CC3CC1CC(O)(C3)C2)c1c[nH]c2cccc(N3CCCCC3)c12` (stereo not shown) [Compound 180, 1-(5-hydroxy-2-azatricyclo[3.3.1.1^3,7]dec-2-yl)-3-[4-(piperidin-1-yl)-1H-indol-3-yl]butan-1-one], the IC50 was above 250 nM.
As for `Cc1cccc2[nH]cc(C(CC(=O)N3C4CC5CC3CC(O)(C5)C4)c3ccccc3)c12` (stereo not shown) [Example 72, 1-(5-hydroxy-2-azatricyclo[3.3.1.1^3,7′]dec-2-yl)-3-(4-methyl-1H-indol-3-yl)-3-phenylpropan-1-one], the IC50 is above 250 nM.
For `CC(CC(=O)N1C2CC3CC(C2)CC1C3)c1c[nH]c2ccc(OS(C)(=O)=O)cc12` (stereo not shown) [Compound 229, 3-(4-(2-azaadamantan-2-yl)-4-oxobutan-2-yl)-1H-indol-5-yl methanesulfonate] the value was above 250 nM.
Regarding `Cc1ccc2[nH]cc(C(C)CC(=O)N3C4CC5CC3CC(O)(C5)C4)c2c1Cl` (single isomer, unassigned) [Compound 175, 3-(4-chloro-5-methyl-1H-indol-3-yl)-1-(5-hydroxy-2-azatricyclo[3.3.1.1^3,7]dec-2-yl)butan-1-one], the IC50 was below 100 nM.
For the molecule `O=C(CCc1c[nH]c2cc(F)ccc12)N1C2CC3CC(C2)CC1C3` [Example 5, 1-(2-azatricyclo[3.3.1.1^3,7]dec-2-yl)-3-(6-fluoro-1H-indol-3-yl)propan-1-one], the IC50 was 200 to 250 nM.
For the molecule `O=C(CC(c1ccccc1)n1nnc2ccccc21)N1C2CC3CC1CC(O)(C3)C2` (stereo not shown) [Compound 121, 3-(1H-benzotriazol-1-yl)-1-(5-hydroxy-2-azatricyclo[3.3.1.1^3,7]dec-2-yl)-3-phenylpropan-1-one], the IC50 is above 250 nM.
For the molecule `Cc1cccc2[nH]cc(C(CC(=O)N3C4CC5CC3CC(O)(C5)C4)c3ccc(F)cc3)c12` (stereo not shown) [Compound 93, 3-(4-fluorophenyl)-1-(5-hydroxy-2-azatricyclo[3.3.1.1^3,7]dec-2-yl)-3-(4-methyl-1H-indol-3-yl)propan-1-one], the IC50 was above 250 nM.
Take `CC(CC(=O)N1C2CC3CC1CC(O)(C3)C2)c1c[nH]c2ccc(F)c(C3CC3)c12` (single isomer, unassigned) [Compound 158, 3-(4-cyclopropyl-5-fluoro-1H-indol-3-yl)-1-(5-hydroxy-2-azatricyclo[3.3.1.1^3,7]dec-2-yl)butan-1-one]: the IC50 is above 250 nM.
Consider `CC(CC(=O)N1C2CC3CC1CC(O)(C3)C2)c1c[nH]c2ncc(Cl)c(C3CC3)c12` (stereo not shown) [Compound 198, 3-(5-chloro-4-cyclopropyl-1H-pyrrolo[2,3-b]pyridin-3-yl)-1-(5-hydroxy-2-azatricyclo[3.3.1.1^3,7]dec-2-yl)butan-1-one], for which the IC50 was below 100 nM.
Turning to `Cc1c(F)ccc2[nH]cc(C(C)CC(=O)N3C4CC5CC3CC(O)(C5)C4)c12` (stereo not shown) [Compound 139, 3-(5-fluoro-4-methyl-1H-indol-3-yl)-1-(5-hydroxy-2-azatricyclo[3.3.1.1^3,7]dec-2-yl)butan-1-one], the IC50 was below 100 nM.
As to `CC(CC(=O)N1C2CC3CC1CC(C(=O)O)(C3)C2)c1c[nH]c2cccc(Cl)c12` (stereo not shown) [Example 43, 2-[3-(4-chloro-1H-indol-3-yl)butanoyl]-2-azatricyclo[3.3.1.1^3,7]decane-carboxylic acid], the IC50 is above 250 nM.
In the case of `Cn1cc(CCC(=O)N2C3CC4CC2CC(O)(C4)C3)c2c(F)cccc21` [Example 8, 3-(4-fluoro-1-methyl-1H-indol-3-yl)-1-(5-hydroxy-2-azatricyclo[3.3.1.1^3,7]dec-2-yl)propan-1-one], the IC50 was above 250 nM.
For `COc1ccc2[nH]cc(C(C)CC(=O)N3C4CC5CC3CC(F)(C5)C4)c2c1` (stereo not shown) [Compound 224, 1-(5-fluoro-2-azaadamantan-2-yl)-3-(5-methoxy-1H-indol-3-yl)butan-1-one], the IC50 was above 250 nM.
Under `O=C(CC(c1ccccc1)c1c[nH]c2cc(Cl)ccc12)N1C2CC3CC1CC(C(=O)O)(C3)C2` (single isomer, unassigned) [Compound 141, 2-[3-(6-chloro-1H-indol-3-yl)-3-phenylpropanoyl]-2-azatricyclo[3.3.1.1^3,7]decane-5-carboxylic acid] stands 100 to 150 nM; under `CC(CC(=O)N1C2CC3CC1CC(O)(C3)C2)c1nc2ccccc2s1` (single isomer, unassigned) [Compound 115, 3-(1,3-benzothiazol-2-yl)-1-(5-hydroxy-2-azatricyclo[3.3.1.1^3,7]dec-2-yl)butan-1-one], 200 to 250 nM; under `O=C(CC(c1ccccc1)c1c[nH]c2cccc(F)c12)N1C2CC3CC1CC(O)(C3)C2` (stereo not shown) [Compound 83, 3-(4-fluoro-1H-indol-3-yl)-1-(5-hydroxy-2-azatricyclo[3.3.1.1^3,7]dec-2-yl)-3-phenylpropan-1-one], below 100 nM.
With `CC(CC(=O)N1C2CC3CC1CC(CC(=O)O)(C3)C2)c1c[nH]c2cccc(-c3ccc(F)o3)c12` (stereo not shown) [Compound 215, 2-(2-(3-(4-(5-fluorofuran-2-yl)-1H-indol-3-yl)butanoyl)-2-azaadamantan-5-yl)acetic acid], the IC50 was above 250 nM.
For `CC(CC(=O)N1C2CC3CC(C2)C(O)C1C3)c1c[nH]c2ccccc12` (stereo not shown) [Example 18, 1-(4-hydroxy-2-azatricyclo[3.3.1.1^3,7]dec-2-yl)-3-(1H-indol-3-yl)butan-1-one], the IC50 lay in the range of 100 to 150 nM.
Under `O=C(CC(c1ccccc1)c1c[nH]c2ccccc12)N1C2CC3CC1CC(O)(C3)C2` (stereo not shown) [Example 67, 1-(5-hydroxy-2-azatricyclo[3.3.1.1^3,7]dec-2-yl)-3-(1H-indol-3-yl)-3-phenylpropan-1-one] stands 100 to 150 nM.
On to `CC(CC(=O)N1C2CC3CC1CC(O)(C3)C2)c1c[nH]c2nccc(C3CC3)c12` (stereo not shown) [Compound 132, 3-(4-cyclopropyl-1H-pyrrolo[2,3-b]pyridin-3-yl)-1-(5-hydroxy-2-azatricyclo[3.3.1.1^3,7]dec-2-yl)butan-1-one], for which the IC50 was below 100 nM.
Regarding `CC(CC(=O)N1C2CC3CC1CC(O)(C3)C2)c1c[nH]c2cccc(C3CC3)c12` (stereo not shown) [Example 41], the IC50 is below 100 nM.
For `O=C(CC(c1c[nH]c2ccccc12)C1CC1)N1C2CC3CC1CC(O)(C3)C2` (stereo not shown) [Example 66, 3-cyclopropyl-1-(5-hydroxy-2-azatricyclo[3.3.1.1^3,7]dec-2-yl)-3-(1H-indol-3-yl)propan-1-one] the value was above 250 nM; for `CC(CC(=O)N1C2CC3CC1CC(O)(C3)C2)c1c[nH]c2cccc(Cl)c12` (stereo not shown) [Example 35, 3-(4-chloro-1H-indol-3-yl)-1-(5-hydroxy-2-azatricyclo[3.3.1.1^3,7]dec-2-yl)butan-1-one], below 100 nM; for `Cc1cccc2[nH]cc(C(CC(=O)N3C4CC5CC3CC(O)(C5)C4)C(C)C)c12` (stereo not shown) [Compound 74, 1-(5-hydroxy-2-azatricyclo[3.3.1.1^7]dec-2-yl)-4-methyl-3-(4-methyl-1H-indol-3-yl)pentan-1-one], above 250 nM.
On to `CC(CC(=O)N1C2CC3CC1CC(O)(C3)C2)c1nc2cc(Cl)ccc2s1` (stereo not shown) [Compound 190, 3-(5-chloro-1,3-benzothiazol-2-yl)-1-(5-hydroxy-2-azatricyclo[3.3.1.1^3,7]dec-2-yl)butan-1-one], for which the half-maximal inhibitory concentration (IC50) fell in the range of 150 to 200 nM.
`CC(CC(=O)N1C2CC3CC1CC(O)(C3)C2)c1c[nH]c2cccc(Cl)c12` (single isomer, unassigned) [Example 36, 3-(4-chloro-1H-indol-3-yl)-1-(5-hydroxy-2-azatricyclo[3.3.1.1^3,7]dec-2-yl)butan-1-one]: the IC50 was in the range of 200 to 250 nM.
Regarding `CC(CC(=O)N1C2CC3CC1CC(O)(C3)C2)c1nc2ccc(Cl)cc2s1` (stereo not shown) [Compound 192, 3-(6-chloro-1,3-benzothiazol-2-yl)-1-(5-hydroxy-2-azatricyclo[3.3.1.1^3,7]dec-2-yl)butan-1-one], the IC50 was below 100 nM.
Consider `CC(CC(=O)N1C2CC3CC1CC(O)(C3)C2)c1cn(CCO)c2cccc(C3CC3)c12` (stereo not shown) [Compound 80, 3-[4-cyclopropyl-1-(2-hydroxyethyl)-1H-indol-3-yl]-1-(5-hydroxy-2-azatricyclo[3.3.1.1^3,7]dec-2-yl)butan-1-one], for which the IC50 is above 250 nM.
With `CC(CC(=O)N1C2CC3CC1CC(C#N)(C3)C2)c1nc2ccccc2s1` (stereo not shown) [Compound 118, 2-[3-(1,3-benzothiazol-2-yl)butanoyl]-2-azatricyclo[3.3.1.1^3,7]decane-5-carbonitrile], the half-inhibitory concentration (IC50) was above 250 nM.
In the case of `O=C(CCc1nc2ccccc2s1)N1C2CC3CC1CC(OC(F)F)(C3)C2` [Example 13, 3-(1,3-benzothiazol-2-yl)-1-[5-(difluoromethoxy)-2-azatricyclo[3.3.1.1^3,7]dec-2-yl]propan-1-one], the IC50 is above 250 nM.
Under `CC(CC(=O)N1C2CC3CC1CC(C(C)C(=O)O)(C3)C2)c1c[nH]c2cccc(Cl)c12` (stereo not shown) [Compound 186, 2-{2-[3-(4-chloro-1H-indol-3-yl)butanoyl]-2-azatricyclo[3.3.1.1^3,7]dec-5-yl}propanoic acid] stands above 250 nM; under `CC(CC(=O)N1C2CC3CC1CC(O)(C3)C2)c1c[nH]c2cc(Cl)c(C3CC3)cc12` (stereo not shown) [Compound 138, 3-(6-chloro-5-cyclopropyl-1H-indol-3-yl)-1-(5-hydroxy-2-azatricyclo[3.3.1.1^3,7]dec-2-yl)butan-1-one], 100 to 150 nM; under `CC(CC(=O)N1C2CC3CC1CC(F)(C3)C2)c1nc2ccccc2s1` (stereo not shown) [Compound 106, 3-(1,3-benzothiazol-2-yl)-1-(5-fluoro-2-azatricyclo[3.3.1.1^3,7]dec-2-yl)butan-1-one], 100 to 150 nM.
